# Measured values as given in patent US20070049564A1 (Wyeth, priority 2005, published 2007).
# Where two headings read alike, the source gives them in different places.
# Legend:
# E. coli GC 2232 = assay: MIC, broth microdilution; settings: Escherichia coli
# E. coli GC 2270 = assay: MIC, broth microdilution; settings: Escherichia coli
# Description: (§1) Antimicrobial susceptibility testing. The in vitro activities of the antibiotics are determined by the broth microdilution method as recommended by the National Committee for Clinical Laboratory Standards (NCCLS) (1). Mueller-Hinton II broth (MHBII)(BBL Cockeysville, Md.) is the medium employed in the testing procedures. Microtiter plates containing serial dilutions of each antimicrobial agent are inoculated with each organism to yield the appropriate density (10^5 CFU/ml) in a 100 μl final volume. The plates are incubated for 18-22 hours at 35° C. in ambient air.
# (§2) Representative compounds were first incubated in mouse serum for an hour prior to the in vitro testing against a panel of selected gram-positive and gram-negative bacteria strains. All compounds were also pre-incubated in water for an hour prior to testing as control. Representative compounds of Formula I were incubated in human serum prior to MIC determination.
# E. coli GC 2271 = assay: MIC, broth microdilution; settings: Escherichia coli
# E. coli GC 4559 = assay: MIC, broth microdilution; settings: Escherichia coli
# E. coli GC 3226 = assay: MIC, broth microdilution; settings: Escherichia coli
# E. coli GC 1073 = assay: MIC, broth microdilution; settings: Escherichia coli
# P. aeruginosa GC 2214 = assay: MIC, broth microdilution; settings: Pseudomonas aeruginosa
# S. aureus GC 4536 = assay: MIC, broth microdilution; settings: Staphylococcus aureus
# S. aureus GC 2216 = assay: MIC, broth microdilution; settings: Staphylococcus aureus
# S. aureus GC 6335 = assay: MIC, broth microdilution; settings: Staphylococcus aureus
# S. aureus GC 6469 = assay: MIC, broth microdilution; settings: Staphylococcus aureus
# Description: as §1
# (§3) Representative compounds were first incubated in mouse serum for an hour prior to the in vitro testing against a panel of selected gram-positive and gram-negative bacteria strains. All compounds were also pre-incubated in water for an hour prior to testing as control.
# E. faecalis GC 2265 = assay: MIC, broth microdilution; settings: Enterococcus faecalis
# Description: as §1, §3
# E. faecalis GC 2242 = assay: MIC, broth microdilution; settings: Enterococcus faecalis
# Description: as §1, §2
# E. faecium GC 2243 = assay: MIC, broth microdilution; settings: Enterococcus faecium
# S. pneumoniae+ GC 4465 = assay: MIC, broth microdilution; settings: Streptococcus pneumoniae
# S. pyogenes GC 4563 = assay: MIC, broth microdilution; settings: Streptococcus pyogenes
# S. agalactiae GC 4564 = assay: MIC, broth microdilution; settings: Streptococcus agalactiae
# c. albicans GC 3066 = assay: MIC, broth microdilution
# E. coli = assay: Range of MIC for E. coli strains; settings: Escherichia coli
# Staph. aureus Smith = assay: In vivo activity (oral, iv; ED50) against Staph. aureus Smith in mice
# Description: Representative examples of compounds of Formula I were tested for the oral efficacy using S. aureus Smith in mice.
structure (smiles),measurement,setting,value
"CN(C)c1cc(NC(=O)CN(C(=O)OCOC(=O)c2ccc(F)cc2)C(C)(C)C)c(O)c2c1C[C@H]1C[C@H]3[C@H](N(C)C)C(O)=C(C(N)=O)C(=O)[C@@]3(O)C(O)=C1C2=O [Example 52, ({[(2-{[(5aR,6aS,7S,10aS)-9-(aminocarbonyl)-4,7-bis(dimethylamino)-1,8,10a,11-tetrahydroxy-10,12-dioxo-5,5a,6,6a,7,10,10a,12-octahydrotetracen-2-yl]amino}-2-oxoethyl)(tert-butyl)amino]carbonyl}oxy)methyl 4-fluorobenzoate]",MIC,"E. coli GC 2232; GC2232, read-out: MINIMAL INHIBITORY CONCENTRATION MIC, Human Serum",4 µg/mL
same,MIC,"E. coli GC 2232; GC2232, read-out: MINIMAL INHIBITORY CONCENTRATION MIC, Mouse Serum",0.5 µg/mL
same,MIC,"E. coli GC 2232; GC2232, read-out: MINIMAL INHIBITORY CONCENTRATION MIC, Water",8 µg/mL
same,MIC,"E. coli GC 2270; GC2270, read-out: MINIMAL INHIBITORY CONCENTRATION MIC, Human Serum",4 µg/mL
same,MIC,"E. coli GC 2270; GC2270, read-out: MINIMAL INHIBITORY CONCENTRATION MIC, Mouse Serum",0.5 µg/mL
same,MIC,"E. coli GC 2270; GC2270, read-out: MINIMAL INHIBITORY CONCENTRATION MIC, Water",4 µg/mL
same,MIC,"E. coli GC 2271; GC2271, read-out: MINIMAL INHIBITORY CONCENTRATION MIC, Human Serum",4 µg/mL
same,MIC,"E. coli GC 2271; GC2271, read-out: MINIMAL INHIBITORY CONCENTRATION MIC, Mouse Serum",0.5 µg/mL
same,MIC,"E. coli GC 2271; GC2271, read-out: MINIMAL INHIBITORY CONCENTRATION MIC, Water",4 µg/mL
same,MIC,"E. coli GC 4559; GC4559, read-out: MINIMAL INHIBITORY CONCENTRATION MIC, Human Serum",8 µg/mL
same,MIC,"E. coli GC 4559; GC4559, read-out: MINIMAL INHIBITORY CONCENTRATION MIC, Mouse Serum",1 µg/mL
same,MIC,"E. coli GC 4559; GC4559, read-out: MINIMAL INHIBITORY CONCENTRATION MIC, Water",8 µg/mL
same,MIC,"E. coli GC 3226; GC3226, read-out: MINIMAL INHIBITORY CONCENTRATION MIC, Human Serum",16 µg/mL
same,MIC,"E. coli GC 3226; GC3226, read-out: MINIMAL INHIBITORY CONCENTRATION MIC, Mouse Serum",1 µg/mL
same,MIC,"E. coli GC 3226; GC3226, read-out: MINIMAL INHIBITORY CONCENTRATION MIC, Water",16 µg/mL
same,MIC,"E. coli GC 1073; GC1073, read-out: MINIMAL INHIBITORY CONCENTRATION MIC, Human Serum",8 µg/mL
same,MIC,"E. coli GC 1073; GC1073, read-out: MINIMAL INHIBITORY CONCENTRATION MIC, Mouse Serum",1 µg/mL
same,MIC,"E. coli GC 1073; GC1073, read-out: MINIMAL INHIBITORY CONCENTRATION MIC, Water",4 µg/mL
same,MIC,"P. aeruginosa GC 2214; GC2214, read-out: MINIMAL INHIBITORY CONCENTRATION MIC, Human Serum",> 64 µg/mL
same,MIC,"P. aeruginosa GC 2214; GC2214, read-out: MINIMAL INHIBITORY CONCENTRATION MIC, Mouse Serum",64 µg/mL
same,MIC,"P. aeruginosa GC 2214; GC2214, read-out: MINIMAL INHIBITORY CONCENTRATION MIC, Water",> 64 µg/mL
same,MIC,"S. aureus GC 4536; GC4536, read-out: MINIMAL INHIBITORY CONCENTRATION MIC, Human Serum",0.5 µg/mL
same,MIC,"S. aureus GC 4536; GC4536, read-out: MINIMAL INHIBITORY CONCENTRATION MIC, Mouse Serum",0.5 µg/mL
same,MIC,"S. aureus GC 4536; GC4536, read-out: MINIMAL INHIBITORY CONCENTRATION MIC, Water",2 µg/mL
same,MIC,"S. aureus GC 2216; GC2216, read-out: MINIMAL INHIBITORY CONCENTRATION MIC, Human Serum",1 µg/mL
same,MIC,"S. aureus GC 2216; GC2216, read-out: MINIMAL INHIBITORY CONCENTRATION MIC, Mouse Serum",0.5 µg/mL
same,MIC,"S. aureus GC 2216; GC2216, read-out: MINIMAL INHIBITORY CONCENTRATION MIC, Water",4 µg/mL
same,MIC,"S. aureus GC 6335; GC6335, read-out: MINIMAL INHIBITORY CONCENTRATION MIC, Human Serum",2 µg/mL
same,MIC,"S. aureus GC 6335; GC6335, read-out: MINIMAL INHIBITORY CONCENTRATION MIC, Mouse Serum",1 µg/mL
same,MIC,"S. aureus GC 6335; GC6335, read-out: MINIMAL INHIBITORY CONCENTRATION MIC, Water",4 µg/mL
same,MIC,"S. aureus GC 6469; GC6469, read-out: MINIMAL INHIBITORY CONCENTRATION MIC, Human Serum",2 µg/mL
same,MIC,"S. aureus GC 6469; GC6469, read-out: MINIMAL INHIBITORY CONCENTRATION MIC, Mouse Serum",0.5 µg/mL
same,MIC,"S. aureus GC 6469; GC6469, read-out: MINIMAL INHIBITORY CONCENTRATION MIC, Water",4 µg/mL
same,MIC,"E. faecalis GC 2265; GC2265, read-out: MINIMAL INHIBITORY CONCENTRATION MIC, Human Serum",4 µg/mL
same,MIC,"E. faecalis GC 2265; GC2265, read-out: MINIMAL INHIBITORY CONCENTRATION MIC, Mouse Serum",1 µg/mL
same,MIC,"E. faecalis GC 2265; GC2265, read-out: MINIMAL INHIBITORY CONCENTRATION MIC, Water",4 µg/mL
same,MIC,"E. faecalis GC 2242; GC2242, read-out: MINIMAL INHIBITORY CONCENTRATION MIC, Human Serum",4 µg/mL
same,MIC,"E. faecalis GC 2242; GC2242, read-out: MINIMAL INHIBITORY CONCENTRATION MIC, Mouse Serum",0.5 µg/mL
same,MIC,"E. faecalis GC 2242; GC2242, read-out: MINIMAL INHIBITORY CONCENTRATION MIC, Water",4 µg/mL
same,MIC,"E. faecium GC 2243; GC2243, read-out: MINIMAL INHIBITORY CONCENTRATION MIC, Human Serum",1 µg/mL
same,MIC,"E. faecium GC 2243; GC2243, read-out: MINIMAL INHIBITORY CONCENTRATION MIC, Mouse Serum",0.25 µg/mL
same,MIC,"E. faecium GC 2243; GC2243, read-out: MINIMAL INHIBITORY CONCENTRATION MIC, Water",1 µg/mL
same,MIC,"S. pneumoniae+ GC 4465; read-out: MINIMAL INHIBITORY CONCENTRATION MIC, Human Serum",4 µg/mL
same,MIC,"S. pneumoniae+ GC 4465; read-out: MINIMAL INHIBITORY CONCENTRATION MIC, Mouse Serum",1 µg/mL
same,MIC,"S. pneumoniae+ GC 4465; read-out: MINIMAL INHIBITORY CONCENTRATION MIC, Water",2 µg/mL
same,MIC,"S. pyogenes GC 4563; GC4563, read-out: MINIMAL INHIBITORY CONCENTRATION MIC, Human Serum",0.25 µg/mL
same,MIC,"S. pyogenes GC 4563; GC4563, read-out: MINIMAL INHIBITORY CONCENTRATION MIC, Mouse Serum",0.12 µg/mL
same,MIC,"S. pyogenes GC 4563; GC4563, read-out: MINIMAL INHIBITORY CONCENTRATION MIC, Water",0.25 µg/mL
same,MIC,"S. agalactiae GC 4564; GC4564, read-out: MINIMAL INHIBITORY CONCENTRATION MIC, Human Serum",0.5 µg/mL
same,MIC,"S. agalactiae GC 4564; GC4564, read-out: MINIMAL INHIBITORY CONCENTRATION MIC, Mouse Serum",0.12 µg/mL
same,MIC,"S. agalactiae GC 4564; GC4564, read-out: MINIMAL INHIBITORY CONCENTRATION MIC, Water",0.5 µg/mL
same,MIC,"c. albicans GC 3066; Candida albicans, GC3066, read-out: MINIMAL INHIBITORY CONCENTRATION MIC",> 64 µg/mL
same,MINIMAL INHIBITORY CONCENTRATION MIC,c. albicans GC 3066; Human Serum,>64 UG/ML
same,MINIMAL INHIBITORY CONCENTRATION MIC,c. albicans GC 3066; Mouse Serum,>64 UG/ML
same,MIC,"E. coli; 20 h, read-out: Range of MIC, E. coli (Mouse Serum)",0.5 to 1 µg/mL
same,MIC,"E. coli; read-out: Minimum inhibitory concentration (MIC), E. coli (Human Serum)",4 to 16 µg/mL
same,MIC,"E. coli; read-out: Minimum inhibitory concentration (MIC), E. coli (water)",4 to 16 µg/mL
same,MIC,"E. coli; read-out: Range of MIC, E. coli (Water)",4 to 16 µg/mL
same,ED50,"Staph. aureus Smith; Staphylococcus aureus, in Mus musculus, iv, read-out: ED50 SIV (Staph aureus Smith)",1.29 mg/kg
same,ED50,"Staph. aureus Smith; Staphylococcus aureus, in Mus musculus, po, read-out: ED50 SOD (Staph aureus Smith)",10.7 mg/kg
same,ED50,"Staph. aureus Smith; Staphylococcus aureus, in Mus musculus, po, read-out: ED50 Staph Smith SOD",10.7 mg/kg
same,ED50,"Staph. aureus Smith; iv, read-out: ED50 Staph Smith SIV",1.29 mg/kg
